Data: patent publication US8163929B2, “Dihydropyridone amides as P2X7 modulators” (Roche Palo Alto LLC, priority 2008, dated 2012)

Biological target: T1, P2X7 (UniProt Q99572)
T1 sequence (Q99572 1-595): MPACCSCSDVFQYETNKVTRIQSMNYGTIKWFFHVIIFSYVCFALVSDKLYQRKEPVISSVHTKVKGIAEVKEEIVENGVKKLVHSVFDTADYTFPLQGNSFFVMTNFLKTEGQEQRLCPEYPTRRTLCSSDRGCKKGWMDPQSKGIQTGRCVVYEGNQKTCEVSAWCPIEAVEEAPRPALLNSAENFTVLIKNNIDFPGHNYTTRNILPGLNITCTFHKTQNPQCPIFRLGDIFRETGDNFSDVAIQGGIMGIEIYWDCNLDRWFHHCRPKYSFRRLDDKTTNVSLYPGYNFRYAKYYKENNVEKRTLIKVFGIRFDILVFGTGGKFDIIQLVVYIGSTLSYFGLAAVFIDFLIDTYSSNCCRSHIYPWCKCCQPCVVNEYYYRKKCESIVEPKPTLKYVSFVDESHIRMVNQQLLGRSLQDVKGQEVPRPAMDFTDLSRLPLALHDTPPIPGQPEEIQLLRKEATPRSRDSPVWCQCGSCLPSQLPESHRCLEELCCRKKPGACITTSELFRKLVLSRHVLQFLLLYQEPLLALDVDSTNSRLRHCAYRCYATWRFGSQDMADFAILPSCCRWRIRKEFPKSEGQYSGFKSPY
Experiment: P2X7 activity of Table 1
Format: cell-based
Details: pIC50 values for P2X7
Method: Stock solutions of compounds were prepared from powders as a 10 mM DMSO stock solution. These solutions were stored at RT during the two week period of these experiments to prevent freeze-thaw of the DMSO stocks. The DMSO stocks were added to the appropriate assay buffer at a concentration of 10 μM, and then diluted serially to the final concentrations that were tested. […] The aqueous solutions of compounds as well as ATP (Sigma A7699) and BzATP (Sigma B6396) were prepared fresh for each day of experiment.
1321N1 cells stably expressing the full length human P2X7 gene (1321N1-hP2X7) and HEK293 cells stably expressing the full length rat P2X7 gene (HEK293-rP2X7) were obtained from the Roche Cell Culture Facility. 1321N1-hP2X7 cells were grown in Dulbecco's Modified Eagle's Medium (DMEM) high glucose supplemented with 10% FBS and 250 μg/mL G418. HEK293-rP2X7 cells were grown in DMEM/F-12 supplemented with 10% FBS, 1 mM CaCl2, 2 mM MgCl2, 2 mM L-Glutamine and 500 μg/ml G418. Cells were split such that they never became >70% confluent.
On the day prior to the experiment, 1321N1-hP2X7 or HEK293-rP2X7 cells were released into suspension with calcium-free PBS+Versene and washed by centrifugation with calcium-free PBS to remove the Versene. Cells were resuspended in growth medium at a density of 2.5×10^5 cells/mL and seeded into black walled, clear bottom 96 well plates (50,000 cells/well) approximately 18 hr prior to intracellular calcium flux experiments.
On the day of the experiment, plates were washed with FLIPR buffer (calcium- and magnesium-free Hank's Balanced Salt Solution (HBSS) supplemented with 10 mM Hepes, 2.5 mM probenecid and 2 mM calcium chloride) using a BIO-TEK 96 channel plate washer and incubated with […] fluo-3 dye at 37° C. for one hr. The dye was then removed by plate washing and the cells were allowed to equilibrate for 20 min at room temperature with antagonist or vehicle (FLIPR buffer). Agonist (100 μM BzATP final concentration for hP2X7; 5 μM BzATP final concentration or rP2X7) was added online with the FLIPR and fluorescence measurements made at 1 sec intervals for 60 sec followed by 3 sec intervals for a further 4 min (5 min total). A final addition of 5 μM ionomycin was made and the maximal BzATP-evoked fluorescence normalized to the maximal ionomycin-evoked fluorescence.

COCCn1c(C)nnc1-c1ccc(C)c(NC(=O)C2=CNC(=O)C[C@H]2c2ccc(F)cc2)c1 [Compound 48, (S)-4-(4-Fluoro-phenyl)-6-oxo-1,4,5,6-tetrahydro-pyridine-3-carboxylic acid {5-[4-(2-methoxy-ethyl)-5-methyl-4H-[1,2,4]triazol-3-yl]-2-methyl-phenyl}-amide]
pIC50: 5.86

Cc1cn(-c2ccc(C)c(NC(=O)C3=CNC(=O)C[C@H]3c3ccc(F)cc3)c2)cn1 [Compound 49, (S)-4-(4-Fluoro-phenyl)-6-oxo-1,4,5,6-tetrahydro-pyridine-3-carboxylic acid [2-methyl-5-(4-methyl-imidazol-1-yl)-phenyl]-amide]
pIC50: 6.855

CCOC(=O)Cn1nc(-c2ccc(C)c(NC(=O)C3=CNC(=O)C[C@H]3c3ccc(F)cc3)c2)cc1C [Compound 50, [3-(3-{[(S)-4-(4-Fluoro-phenyl)-6-oxo-1,4,5,6-tetrahydro-pyridine-3-carbonyl]-amino}-4-methyl-phenyl)-5-methyl-pyrazol-1-yl]-acetic acid ethyl ester]
pIC50: 7.145

Cc1ccc(-c2ncccn2)cc1NC(=O)C1=CNC(=O)C[C@H]1c1ccc(F)cc1 [Compound 51, (S)-4-(4-Fluoro-phenyl)-6-oxo-1,4,5,6-tetrahydro-pyridine-3-carboxylic acid (2-methyl-5-pyrimidin-2-yl-phenyl)-amide]
pIC50: 7.87

Cc1ccc(-c2cncnc2)cc1NC(=O)C1=CNC(=O)C[C@H]1c1ccc(F)cc1 [Compound 52, (S)-4-(4-Fluoro-phenyl)-6-oxo-1,4,5,6-tetrahydro-pyridine-3-carboxylic acid (2-methyl-5-pyrimidin-5-yl-phenyl)-amide]
pIC50: 6.425

Cc1nccc(-c2ccc(C)c(NC(=O)C3=CNC(=O)C[C@H]3c3ccc(F)cc3)c2)n1 [Compound 53, (S)-4-(4-Fluoro-phenyl)-6-oxo-1,4,5,6-tetrahydro-pyridine-3-carboxylic acid [2-methyl-5-(2-methyl-pyrimidin-4-yl)-phenyl]-amide]
pIC50: 7.325

Cc1cc(-c2ccc(C)c(NC(=O)C3=CNC(=O)C[C@H]3c3ccc(F)cc3)c2)ccn1 [Compound 54, (S)-4-(4-Fluoro-phenyl)-6-oxo-1,4,5,6-tetrahydro-pyridine-3-carboxylic acid [2-methyl-5-(2-methyl-pyridin-4-yl)-phenyl]-amide]
pIC50: 7.045

Cc1ccc(-c2c(Cl)cn[nH]c2=O)cc1NC(=O)C1=CNC(=O)C[C@H]1c1ccc(F)cc1 [Compound 55, (S)-4-(4-Fluoro-phenyl)-6-oxo-1,4,5,6-tetrahydro-pyridine-3-carboxylic acid [5-(5-chloro-3-oxo-2,3-dihydro-pyridazin-4-yl)-2-methyl-phenyl]-amide]
pIC50: 7.54

Cc1ccc(-c2ccn[nH]c2=O)cc1NC(=O)C1=CNC(=O)C[C@H]1c1ccc(F)cc1 [Compound 56, (S)-4-(4-Fluoro-phenyl)-6-oxo-1,4,5,6-tetrahydro-pyridine-3-carboxylic acid [2-methyl-5-(3-oxo-2,3-dihydro-pyridazin-4-yl)-phenyl]-amide]
pIC50: 8.256

Cc1ccc(-c2cscn2)cc1NC(=O)C1=CNC(=O)C[C@H]1c1ccc(F)cc1 [Compound 57, (S)-4-(4-Fluoro-phenyl)-6-oxo-1,4,5,6-tetrahydro-pyridine-3-carboxylic acid (2-methyl-5-thiazol-4-yl-phenyl)-amide]
pIC50: 8.06

Cc1nc(-c2ccc(C)c(NC(=O)C3=CNC(=O)C[C@H]3c3ccc(F)cc3)c2)cs1 [Compound 58, (S)-4-(4-Fluoro-phenyl)-6-oxo-1,4,5,6-tetrahydro-pyridine-3-carboxylic acid [2-methyl-5-(2-methyl-thiazol-4-yl)-phenyl]-amide]
pIC50: 7.87

Cc1ccc(-c2ccncc2)cc1NC(=O)C1=CNC(=O)C[C@H]1c1ccc(F)cc1 [Compound 59, (S)-4-(4-Fluoro-phenyl)-6-oxo-1,4,5,6-tetrahydro-pyridine-3-carboxylic acid (2-methyl-5-pyridin-4-yl-phenyl)-amide]
pIC50: 7.22
